Experimental data published in PubChem BioAssay AID179 (DTP/NCI, 2004).
Active and inactive are the calls of the source.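 How the source made its calls: active means compounds giving half or more protection of infected cells from virus-caused growth loss, again on retest; inactive means the rest.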

Test system: CEM cells HIV-1 protection, formazan growth assay
Assay: NCI AIDS Antiviral Assay
Details: for IC50: measured here: growth of uninfected CEM cells
Procedure: The ability of compounds to protect human CEM cells from HIV-1 infection is measured as a screen for new compounds capable of inhibiting the HIV virus. Five concentrations of drug were tested on uninfected and infected cells and cell growth was measured using a soluble formazan assay. […] Compounds that provided at least 50% protection were retested. Compounds that provided at least 50% protection on retest were listed as moderately active. Compounds that reproducibly provided 100% protection were listed as confirmed active. […] Note that the inability to provide protection could be due to toxicity.

Structure (SMILES)	outcome	EC50 [µM]	IC50 [µM]
C[C@H]1C[C@H]2[C@@H]3CCC4=CC(=O)C=C[C@]4(C)[C@@]3(F)[C@@H](O)C[C@]2(C)C1=O	inactive	–	–
CN(C)c1nc(N(C)C)nc(N(C)CN(C)c2ccc(Cl)cc2)n1	–	> 50.1	> 50.1
O=S(=O)(O)C(I)(I)S(=O)(=O)O	–	> 200	> 200
CCN(CC)CC(C)(C)C(=O)/C=C/c1ccc(Cl)cc1	–	> 200	7.24
O=C(CCc1cc(-c2ccc(F)cc2)n[nH]1)N(Cc1ccccc1)Cc1ccccc1	–	> 17.4	> 17.4
CC(C)=NNC1=NC(C)(C)P(=O)(N2CCCC2C(=O)O)S1 (stereo unspecified)	–	> 135	132
O=C(N1CCCC1)C1(c2cccc(Cl)c2)CCNCC1	–	> 200	129
Cc1oc2c(c1C)S(=O)(=O)C(C#N)=CN2	–	> 200	> 200
NC(CS)C(=O)O (stereo unspecified)	–	> 182	> 182
Cc1c2ccccc2c(CSC(=N)N)c2ccccc12	–	> 200	0.112
O=C(CC(C(=O)c1ccco1)c1ccco1)c1ccco1 (stereo unspecified)	–	> 200	145
CC1Cc2cc(OCc3ccccc3)cc(OCc3ccccc3)c2[C@H](C)N1Cc1ccccc1 (stereo partly specified)	–	> 200	14.5
CC(=O)OC[C@H]1O[C@@H](O[C@H]2[C@H](OC(C)=O)C=CO[C@@H]2COC(C)=O)C(OC(C)=O)[C@H]2OC(C)(C)O[C@H]21 (stereo partly specified)	–	> 200	69.2
Clc1ccc(-n2nnc(C3=NCCN3)c2-c2ccccc2)cc1	–	> 30.9	> 30.9
CN1c2ccccc2C(=O)Nc2cnc(Cl)nc21	–	> 200	> 200
ClC1=NSC(Cl)=NS1	–	> 53.7	> 53.7
COc1ccc2c3c1C(=O)CCC3CO2 (stereo unspecified)	inactive	–	–
O=C1OC(=O)C2=C1C1c3ccccc3C2c2ccccc21	–	> 95.5	22.4
Cc1sc2nc3n(c(=O)c2c1C)N=CN(c1ccc(F)cc1)C3	–	30.9	> 100
Cc1cc(C)c2c(=N)c3ccccc3n(CCCCCCn3c4ccccc4c(=N)c4c(C)cc(C)nc43)c2n1	–	> 2	0.302
N#CCC(O)CC#N	inactive	–	–
C/C(=N/NC(=S)N(Cc1ccccn1)Cc1ccccn1)c1cnccn1	–	0.2	0.339
CSCCC(NC(=O)OCc1ccccc1)P(=O)(O)c1ccccc1 (stereo unspecified)	–	> 200	> 200

Structure (SMILES)	outcome	EC50 [µM]	IC50 [µM]
Cc1cc(C)c(/C=N/NS(=O)(=O)c2ccccc2)c(C)c1	inactive	–	–
Cc1ccc(C(=O)N(Cc2ccccc2)Cc2ccccc2)cc1N=NN(C)C	–	> 9.77	> 9.77
FC1(F)ON2CCc3ccccc3C2[C@H]1c1ccccc1 (stereo partly specified)	–	> 200	15.5
O=C(NC1CCN(Cc2ccccc2)CC1)c1cccc(I)c1	–	> 200	33.9
Nc1ncnc2c1nnn2C1C=CC(CP(=O)(O)O)C1 (stereo unspecified)	–	> 200	> 200
Cn1ccc2c3c(ccc21)C(N1CCOCC1)=CS(=O)(=O)O3	inactive	–	–
CC(=O)O[C@H]1CC[C@@]2(C)C(=CC[C@@H]3C2CC[C@@]2(C)C3CC[C@@H]2c2nc(C)cs2)C1 (stereo partly specified)	–	> 60.3	> 60.3
Nc1ccc2nc(Nc3ccc(F)cc3)cnc2c1	–	> 20.4	> 20.4
CC(C)(C)[Si](C)(C)OCC1OC(n2ccc(=O)[nH]c2=O)C(O[Si](C)(C)C(C)(C)C)C1CC#N (stereo unspecified)	inactive	> 200	11.7
CCOP(=O)(OCC)/C(C#N)=C\c1ccsc1	–	> 912	> 912
Cn1c2ccccc2c2cc(-c3ccccc3)c3c(c21)C(=O)C=CC3=O	–	> 77.6	2.57
C=C1CC2(OC1=O)c1ccccc1CCc1ccccc12	–	> 36.3	6.17
N#CN=CN1CCN(c2ccccn2)CC1	–	> 537	> 537
COc1ccc(/C=c2\sc3nnc(CCC(=O)Nc4cccc(C(F)(F)F)c4)n3c2=O)cc1	–	> 7.59	> 7.59
COc1cccc2c1C(=O)c1c(O)c3c(c(O)c1C2=O)C[C@@](O)(/C(C)=N\O)C[C@@H]3OC1CC(N)C(O)C(C)O1 (stereo partly specified)	–	> 0.2	0.0646
O=C1C=C(N2CCCC2)C=C(N2CCCC2)C1	–	> 155	81.3
COc1ccc(C2=NNC(=O)OC2c2ccccc2)cc1 (stereo unspecified)	–	> 63.1	7.24
O=S(=O)(c1ccccc1)c1ccccn1	–	75.9	407
CCOc1ccc(N=C2NC(=O)C(CC(=O)Nc3ccc(Cl)cc3Cl)S2)cc1 (stereo unspecified)	–	> 214	> 214
O=C1NN=C(c2ccc(Cl)cc2)CC1C1C(=O)N(c2ccccc2)N=C1c1ccccc1 (stereo unspecified)	–	> 100	49
O=S(=O)(SC(Cl)(Cl)Cl)c1cccc(S(=O)(=O)c2cccc(S(=O)(=O)SC(Cl)(Cl)Cl)c2)c1	–	> 200	> 200
CC1(C)OCN(c2ccc(Cl)cc2)Cn2c1nc1ccccc12	–	> 200	28.8
CCC(=O)[CH-]C(=O)CC.CCC(=O)[CH-]C(=O)CC.[Cu+2]	–	> 200	24.5

Structure (SMILES)	outcome	EC50 [µM]	IC50 [µM]
C[C@]12CC[C@H](O)CC1=CC[C@@H]1C2CC[C@@]2(C)C1CC[C@@H]2c1nc(-c2ccccc2)cs1 (stereo partly specified)	–	> 15.5	> 15.5
CCOC(=O)NC(OCc1ccccc1)(C(=O)OC)C(F)(F)F (stereo unspecified)	–	> 200	> 200
CCN(C)N=Nc1ccc(C(N)=O)cc1	–	> 1200	617
O=C1CN(c2ccccc2)CC(=O)N2C(c3ccccc3)CCCN12 (stereo unspecified)	inactive	–	–
COc1ccc(C(=O)[O][Sn]([c]2ccccc2)([c]2ccccc2)[c]2ccccc2)c(OC)c1OC	–	> 2	0.11
CCOP(C)(=O)C(N)Cc1ccc(OC)c(OC)c1 (stereo unspecified)	–	> 200	> 200
Nc1ccn(C2CSC(CO)O2)c(=O)n1 (stereo unspecified)	–	0.145	10
O=C(c1c(F)c(F)c(F)c(F)c1F)N1CCN(C(=O)c2c(F)c(F)c(F)c(F)c2F)C1=S	–	> 200	1.26
Cc1ccc(N2C(=O)/C(=C/c3ccc(N(CCC#N)CCC#N)cc3)N=C2COc2ccc(Cl)cc2Cl)cc1	inactive	–	–
Nc1ccc(Cl)cc1C(=O)N1CCN(c2ccc([N+](=O)[O-])cn2)CC1	–	> 132	27.5
COC(=O)[C@H]1CO[C@@H](C(C)(C)C)N1C(=O)N1C=CC(=O)C[C@@H]1C	–	> 200	> 200
Cc1ccc(S(=O)OCC23CC4CC(CC(C4)C2)C3)cc1 (stereo unspecified)	inactive	–	–
N#Cc1ccc(Sc2ccccc2)cc1C#N	–	> 110	> 110
CC12CC(C#N)(C#N)C(C#N)(CO1)C(=N)O2 (stereo unspecified)	–	> 200	42.7
CCCc1ccc(N=Cc2cc(OC)c(OC)c(OC)c2)cc1	–	> 31.6	> 31.6
NNC(=O)CNC(=O)c1ccc(Cl)cc1Cl	–	> 27.5	> 27.5
CC(=O)c1cc(I)c(O)c2ncccc12	–	> 79.4	1.45
CC1(C)NC(C)(C)/C(=N\O)C(=NO)/C1=N/O	–	> 200	> 200
CCOCN1COCN=C1NC#N	–	> 490	> 490
O=S(=O)(O)c1cc(N=Nc2cc(S(=O)(=O)O)c3cccnc3c2O)ccc1/C=C/c1ccc(N=Nc2cc(S(=O)(=O)O)c3cccnc3c2O)cc1S(=O)(=O)O.[Cu+2].[Na+]	–	> 10.7	1.2
O=C1OC2=C(c3ccccc3)C(=O)OC2=C1c1ccccc1	inactive	–	–
CCCCNC(=S)SSSSC(=S)NCCCC	–	> 200	11.2
CS(=O)(=O)NNS(=O)(=O)c1cccc([N+](=O)[O-])c1	–	> 617	> 617

Structure (SMILES)	outcome	EC50 [µM]	IC50 [µM]
CC1=C(C(=O)Nc2ccccc2)C(c2ccccc2Cl)C(C(=O)Nc2ccccc2)=C(C)N1	inactive	–	–
COc1ccc(C(C#N)NC23CC4CC(CC(C4)C2)C3)cc1OC (stereo unspecified)	inactive	–	–
CC(C)COC(=N)c1ccccc1C1(O)CCCCC1	–	> 200	117
CC(C)=CCC/C(C)=C/CC/C(C)=C/CC/C=C(\C)CC/C=C(\C)CCC1SC1(C)C (stereo unspecified)	–	> 200	> 200
c1ccc2c(c1)nnn1c3ncccc3nc21	–	> 58.9	23.4
CCc1ccc([OH2+])c(C(=O)[O-])c1.CCc1ccc([OH2+])c(C(=O)[O-])c1.CCc1ccc([OH2+])c(C(=O)[O-])c1.CCc1ccc([OH2+])c(C(=O)[O-])c1.[Cu+2].[Cu+2]	–	> 200	23.4
CC(C)(C)c1cc(/C=C2\CCC/C(=C\c3cc(C(C)(C)C)c(O)c(C(C)(C)C)c3)C2=O)cc(C(C)(C)C)c1O	–	> 200	> 200
O=C1C(=Cc2c[nH]c3ccccc23)C(=O)c2ccccc21	–	> 200	191
C(=C\c1ccc2ccccc2c1Nc1ccccc1)/c1ccccc1	inactive	–	–
O=C(O)Cn1cc([N+](=O)[O-])c(=O)c2ccccc21	–	> 200	> 200
Cc1cccc(C(=O)NCCN(C)C)c1[N+](=O)[O-]	–	> 200	> 200
COC(=O)/C=C/COCC1C2CCC(=O)C21 (stereo unspecified)	–	> 151	> 151
CC1=C(C)CC(C#N)(C#N)C(C#N)(C#N)C1	–	> 200	19.1
O=c1[nH][nH]c(=O)n1Cc1ccccc1	–	> 200	> 200
O/N=C(\CC(O)(C(F)(F)F)C(F)(F)F)c1cccc(Cl)c1	–	> 200	10.7
O=C1C(=O)N(CNC(c2ccccc2)c2ccccc2)c2ccccc21	–	> 126	102
CCSC(CCC(NC(C)=O)C(=O)O)SCC (stereo unspecified)	–	> 200	> 200
CO[C@]12CCC(=O)N1C=Cc1c2[nH]c2ccccc12	inactive	–	–
NNc1nnc(-c2ccccc2)nc1Cc1ccccc1	–	> 25.7	13.8
CCN(CC)c1ccc(/C=C2/C=Cc3ccccc32)cc1	–	> 7.24	> 7.24
